≈ marks a conversion by molar mass, not a printed value. Read-outs that look alike come from different tables or passages of the source.
Assays:
S. aureus DNA gyrase [1] = target: T1, S. aureus DNA gyrase (Staphylococcus aureus, UniProt P0A0K8+P20831); assay: biochemical; type: biochemical; details: for Type of DNA breaks stabilized with S. aureus DNA gyrase: each compound 100 μM, supercoiled pBR322, full-length S. aureus gyrase
T1 construct: Full-length S. aureus GyrA and GyrB were expressed in E. coli and purified as described; made in house; host or cells: E. coli
Procedure: (§1) BlueJuice gel loading buffer (Invitrogen) was added. […] See Supplementary Fig. 15 for representative gels.

E. coli Topo IV [2] = target: T2, E. coli Topo IV (Escherichia coli, UniProt P0AFI2+P20083); assay: E. coli topo IV decatenation inhibition assay; type: biochemical
T2 construct: purchased Inspiralis
Procedure: (§2) In vitro topoisomerase activity assays were performed as described with minor modifications. […] For E. coli DNA gyrase supercoiling assays, 3.4 nM of wild-type E. coli DNA gyrase (Inspiralis) was incubated with 500 ng relaxed pBR322 plasmid DNA in a 30-μl reaction containing the same buffer mixture but without the potassium glutamate. For S. aureus topo IV decatenation assays, 4 nM of S. aureus topo IV was incubated with 200 ng kinetoplast DNA in buffer as described by the manufacturer (Inspiralis). In E. coli topo IV decatenation assay, 0.125 nM of E. coli topo IV was incubated with kDNA as described in the protocol (Inspiralis). Human Top2α relaxation assays were performed as reported using 2 nM of enzyme. […] Reactions were analysed by electrophoresis in 1% w/v agarose gels followed by ethidium bromide staining. IC50 values, defined as the amount of compound that causes half-maximal inhibition, were determined by quantifying the DNA products using densitometry (VisionWorks, UVP) and fitting the data by nonlinear regression with GraFit software (Erythacus). Compound IC50 values reported are the averages of two to three determinations.

S. aureus DNA gyrase [3] = target: T1, S. aureus DNA gyrase; assay: S. aureus DNA gyrase supercoiling inhibition assay; type: biochemical
Procedure: as §2

S. aureus Topo IV [4] = target: T3, S. aureus Topo IV (Staphylococcus aureus, UniProt P0C1S7+P0C1U9); assay: S. aureus topo IV decatenation inhibition assay; type: biochemical
T3 construct: purchased Inspiralis
Procedure: as §2

S. aureus = assay: MIC, broth microdilution, S. aureus strains; type: cell-based; details: Staphylococcus aureus
Procedure: (§3) Antibacterial minimum inhibitory concentrations (MICs) were determined from two independent experiments using broth microdilution methods according to Clinical and Laboratory Standards Institute guidelines. […] Bacterial strains used were from GSK's culture collection.
(§4) The quinolone resistance-determining region (QRDR) or full-length of gyrA/B and parC/E were amplified by PCR from the resistant mutants and DNA sequenced using the following primer pairs (all 5′–3′ sequence): for S. aureus gyrA: […] and […]; gyrB […] and […]; parC […] and […], and parE […] and […], respectively. For S. pneumoniae gyrA: […] and […]; gyrB: […] and […]; parC: […] and […], and parE: […] and […], respectively. […] Mutations in etoposide-resistant transformants were confirmed by PCR and DNA analysis.

S. pneumoniae = assay: MIC, broth microdilution, S. pneumoniae strains; type: cell-based; details: Streptococcus pneumoniae
Procedure: as §3, §4

E. coli = assay: MIC, broth microdilution, E. coli strains; type: cell-based, Escherichia coli
Procedure: as §3

E. coli DNA gyrase [5] = target: T4, E. coli DNA gyrase (Escherichia coli, UniProt P0AES4+P0AES6); assay: E. coli DNA gyrase supercoiling inhibition assay; type: biochemical; design: E. coli full-length DNA gyrase subunits A and B (both N-terminally 6-His-tagged) produced in-house; 6-His (N); made in house
Procedure: as §2

S. aureus Topo IV [6] = target: T3, S. aureus Topo IV; design: method as in earlier work; details: read-out: IC50, S. aureus Topo IV decatanation; supplementary ref 4; cited from earlier work
Human Top2α [7] = target: T5, Human Top2α (Homo sapiens, UniProt P11388); assay: DNA cleavage assay with human Top2α
Procedure: as §1

Human Top2α [8] = target: T5, Human Top2α; assay: Human Top2α relaxation inhibition assay; type: biochemical
Haemophilus influenzae = assay: MIC, broth microdilution, H. influenzae strains; type: cell-based; design: unit not given here
Procedure: as §3

Klebsiella pneumoniae = assay: MIC, broth microdilution, K. pneumoniae strains; type: cell-based; design: unit not given here; details: Klebsiella pneumoniae 1161486 tolC
Procedure: as §3

Acinetobacter baumannii = assay: MIC, broth microdilution, A. baumannii strains; type: cell-based; design: unit not given here; details: A. baumannii ACM1015 adeABC adeIJK (footnote c)
Procedure: as §3

E. coli DNA gyrase [9] = target: T4, E. coli DNA gyrase; details: concentrations showing similar intensities of DSB
E. coli Topo IV [10] = target: T2, E. coli Topo IV; details: read-out: IC50, E. coli Topo IV decatanation; supplementary ref 3; cited from earlier work
[11] = S. aureus RN4220 (parent), read-out: MIC
[12] = S. aureus RN4220 GyrB ΔT403-K406, read-out: MIC
[13] = S. pneumoniae 1629, read-out: MIC
[14] = S. pneumoniae 1629 GyrB ΔL407–S410, read-out: MIC
[15] = Escherichia coli, E. coli 7623, read-out: MIC
[16] = Escherichia coli, E. coli 7623 ΔtolC

COc1cc([C@@H]2c3cc4c(cc3[C@@H](O[C@@H]3O[C@@H]5CO[C@@H](C)O[C@H]5[C@H](O)[C@H]3O)[C@H]3COC(=O)[C@H]23)OCO4)cc(OC)c1O [Etoposide, etoposide]
EC50 (S. aureus DNA gyrase [1]): 107 µM
Type of DNA breaks stabilized with S. aureus DNA gyrase (S. aureus DNA gyrase [1]): both SSB and DSB
Plateau of fitted IC50 curve, % of maximal inhibition (E. coli Topo IV [2]; E. coli Topo IV decatenation): ~75%
IC50 (E. coli Topo IV [2]; read-out: IC50, E. coli Topo IV decatanation): 107 µM
IC50 (S. aureus DNA gyrase [3]): 48 µM
Plateau of fitted IC50 curve, % of maximal inhibition (S. aureus DNA gyrase [3]; S. aureus DNA gyrase supercoiling): ~75%
IC50 (S. aureus Topo IV [4]): 246 µM
Plateau of fitted IC50 curve, % of maximal inhibition (S. aureus Topo IV [4]): ~50%
MIC (S. aureus; [11]): 64 µg/mL (≈ 109 µM)
MIC (S. aureus; S. aureus RN4220 GyrB D437A): 256 µg/mL (≈ 435 µM)
MIC (S. aureus; S. aureus RN4220 GyrB D437N): 128 µg/mL (≈ 217 µM)
MIC (S. aureus; S. aureus RN4220 GyrB D437V): 256 µg/mL (≈ 435 µM)
MIC (S. aureus; S. aureus RN4220 GyrB P456L): 256 µg/mL (≈ 435 µM)
MIC (S. aureus; [12]): 256 µg/mL (≈ 435 µM)
MIC (S. pneumoniae; [13]): 2 µg/mL (≈ 3.4 µM)
MIC (S. pneumoniae; S. pneumoniae 1629 GyrB R447C): 16 µg/mL (≈ 27.2 µM)
MIC (S. pneumoniae; [14]): 16 µg/mL (≈ 27.2 µM)
MIC (E. coli; [15]): > 256 µg/mL
MIC (E. coli; [16]): 0.75 µg/mL (≈ 1.27 µM)
IC50 (E. coli DNA gyrase [5]): 134 µM
Plateau of fitted IC50 curve, % of maximal inhibition (E. coli DNA gyrase [5]; E. coli DNA gyrase supercoiling): approx. 60%

COc1ccc2ncc(C#N)c(CCN3CCC(NCc4cc5c(cn4)OCS5)CC3)c2c1 [GSK299423]
MIC (S. aureus; [11]): 0.016 µg/mL (≈ 0.0347 µM)
MIC (S. aureus; S. aureus RN4220 GyrB D437A): 0.125 µg/mL (≈ 0.271 µM)
MIC (S. aureus; S. aureus RN4220 GyrB D437N): 0.125 µg/mL (≈ 0.271 µM)
MIC (S. aureus; S. aureus RN4220 GyrB D437V): 0.125 µg/mL (≈ 0.271 µM)
MIC (S. aureus; S. aureus RN4220 GyrB P456L): 0.125 µg/mL (≈ 0.271 µM)
MIC (S. aureus; [12]): 0.016 µg/mL (≈ 0.0347 µM)

O=C1c2c(O)ccc(O)c2C(=O)c2c(NCCNCCO)ccc(NCCNCCO)c21 [Mitoxantrone, mitoxantrone]
MIC (S. aureus; [11]): 32 µg/mL (≈ 72 µM)
MIC (S. aureus; S. aureus RN4220 GyrB D437A): 8 µg/mL (≈ 18 µM)
MIC (S. aureus; S. aureus RN4220 GyrB D437N): 32 µg/mL (≈ 72 µM)
MIC (S. aureus; S. aureus RN4220 GyrB D437V): 8 µg/mL (≈ 18 µM)
MIC (S. aureus; S. aureus RN4220 GyrB P456L): 4 µg/mL (≈ 9 µM)
MIC (S. aureus; [12]): 6 µg/mL (≈ 13.5 µM)

COc1c(N2C[C@@H]3CCCN[C@@H]3C2)c(F)cc2c(=O)c(C(=O)O)cn(C3CC3)c12 [Moxifloxacin, moxifloxacin]
Type of DNA breaks stabilized with S. aureus DNA gyrase (S. aureus DNA gyrase [1]): DSB
MIC (S. aureus; [11]): 0.063 µg/mL (≈ 0.157 µM)
MIC (S. aureus; S. aureus RN4220 GyrB D437A): 0.063 µg/mL (≈ 0.157 µM)
MIC (S. aureus; S. aureus RN4220 GyrB D437N): 0.063 µg/mL (≈ 0.157 µM)
MIC (S. pneumoniae; [13]): 0.031 µg/mL (≈ 0.0772 µM)
MIC (S. pneumoniae; S. pneumoniae 1629 GyrB R447C): 0.094 µg/mL (≈ 0.234 µM)
MIC (S. pneumoniae; [14]): 0.047 µg/mL (≈ 0.117 µM)
MIC (E. coli; [15]): ≤ 0.016 µg/mL
MIC (E. coli; [16]): ≤ 0.016 µg/mL
IC50 (S. aureus Topo IV [6]): 3.8 µM

C[C@@H]1CN2c3ccc([N+](=O)[O-])cc3CC3(C(=O)NC(=O)NC3=O)[C@H]2[C@H](C)O1 [QPT-1, quinoline pyrimidine trione-1]
EC50 (S. aureus DNA gyrase [1]): 8.8 µM
Type of DNA breaks stabilized with S. aureus DNA gyrase (S. aureus DNA gyrase [1]): DSB
Activity against human Top2α (Human Top2α [7]): does not have detectable activity
EC50 (Human Top2α [7]): > 800 µM
IC50 (Human Top2α [8]): > 500 µM
MIC (S. aureus; [11]): 0.5 µg/mL (≈ 1.34 µM)
MIC (S. aureus; S. aureus RN4220 GyrB D437A): 2 µg/mL (≈ 5.34 µM)
MIC (S. aureus; S. aureus RN4220 GyrB D437N): 4 µg/mL (≈ 10.7 µM)
MIC (E. coli; Escherichia coli 7623 tolC): 0.063 µg/mL (≈ 0.168 µM)
MIC (E. coli; [15]): 8 µg/mL (≈ 21.4 µM)
MIC (E. coli; [16]): 0.063 µg/mL (≈ 0.168 µM)
MIC (Haemophilus influenzae; Haemophilus influenzae H128): ≤ 0.125
MIC (Haemophilus influenzae; Haemophilus influenzae H128 acrB): ≤ 0.125
MIC (Klebsiella pneumoniae): 0.125
MIC (Acinetobacter baumannii): 0.125
DNA cleavage activity relative to the (+) enantiomer (more active) (E. coli DNA gyrase [9]): ~ 30 fold
IC50 (E. coli Topo IV [10]): 30 µM
IC50 (E. coli DNA gyrase [5]): 0.65 µM

COc1cc([C@@H]2c3cc4c(cc3[C@@H](O[C@@H]3O[C@@H]5CO[C@@H](c6cccs6)O[C@H]5[C@H](O)[C@H]3O)[C@H]3COC(=O)[C@H]23)OCO4)cc(OC)c1O [Teniposide, teniposide]
MIC (S. aureus; [11]): 16 µg/mL (≈ 24.4 µM)
MIC (S. aureus; S. aureus RN4220 GyrB D437A): 32 µg/mL (≈ 48.7 µM)
MIC (S. aureus; S. aureus RN4220 GyrB D437N): 32 µg/mL (≈ 48.7 µM)
MIC (S. aureus; S. aureus RN4220 GyrB D437V): 64 µg/mL (≈ 97.5 µM)
MIC (S. aureus; S. aureus RN4220 GyrB P456L): 32 µg/mL (≈ 48.7 µM)
MIC (S. aureus; [12]): 32 µg/mL (≈ 48.7 µM)

Reference: article PMC4686662 (Nature Communications, 2015)
